Experimental data as given in PMC8647499, “Preclinical evaluation of strasseriolides A–D, potent antiplasmodial macrolides isolated from Strasseria geniculata CF-247,251” (Malaria Journal, 2021).

Assays:
mice = assay: In vivo toxicity in mice after i.v. injection; settings: mouse, in vivo, iv, 25 mg/kg
Protocol: Three Balb/C mice (6–8 weeks old) were intravenously injected with 25 mg/kg of strasseriolide D dissolved in 200 µL of vehicle (0.5%HPMC, 0.5% Tween 80 and 0.5% Benzyl alcohol in water). Blood samples were collected by pricking the […] on the leg of each mouse at time points 1.5 (T 1.5 h), 5 (T 5 h) and 24 h (T 24 h). From the harvested blood, 50 µL plasma were prepared for all the samples and stored at -80 °C until needed. A previously developed LC–MS–MS method (see supporting information) was used to determine the plasma concentration of strasseriolide D as described below.
Similar sample preparation and LC–MS–MS analysis were respectively performed for mice intravenously injected with strasseriolides A and C as test compounds and mice blood samples collected at 30 min (T 30 M), 2 h (T 2 h), 6 h (T 6 h) and 24 h (T 24 h). […] For strasseriolides A, B and C as test compounds; strasseriolides C, D and B were respectively used as internal standards. After LC–MS–MS analysis, the plasma concentration of compound vs. time data was determined for each strasseriolide.
Animals were observed individually at 15, 30 and 60 min after dosing and periodically during the first 24 h for any clinical signs of toxicity or mortality. The toxicity evaluation was carried out by observing behaviour parameters, including the Grimace scale parameters. The mice were sacrificed, and the main organs were examined by visual inspection during autopsy.

[1] = Metabolic stability assay in human liver microsomes; assay type: in vitro ADME; settings: for half-life: pH 7.4, 1 mg/mL protein; for Clearance Category: ranked by CLint
Protocol: Pretreatment of the 96-well ABgen-0765 reaction plates was the same as previously described above. Two microlitres (2 µL) of compounds (previously dissolved in DMSO) were pre-incubated with 98 µL of cofactor/buffer solution (0.1 M phosphate buffer of pH 7.4, 100 mM K3PO4, 3.3 mM MgCl2, 3.3 mM G6P, 1.3 mM NADPH, and 0.4 u/mL G6PDH) at 37 °C for 10 min. The reactions were then initiated by the addition of 100 µL of HLM solution (at final protein concentration of 1 mg/mL), after which they were stopped at pre-determined incubation times of 0, 10, 15, 30, 45 and 60 min by adding 90 µL acetonitrile containing internal LC–MS–MS standards and shaking at 180 Hz. The samples were centrifuged to sediment the protein precipitates and the supernatants were analysed by LC–MS–MS as previously described above. The integration of each analyte (the […]) and internal standard peak area was performed by the Analyst® software version 1.5.2 and used to calculate the percentage of remaining compound at each incubation time. The natural logarithm of the percentage of the remaining parent compound was plotted against the incubation time and used to calculate the half-life by the following equation:
Half-life (T ½ min) = 0.693/k, where k is the slope of a plot of the natural log of the percentage parent compound remaining vs. time.
The intrinsic clearance (CLint) was determined by the equation: CLint
=Ln2/t1/2min∗volumeincubationmL/microsomalproteinmg∗45MPPGL1500ghumanliver/70kghumanbodyweightj
Units for CLint were expressed as mL/min/mg microsomal protein and MPPGL = mg microsomal protein per gram liver.

[2] = Solubility in the formulation vehicle; assay type: physicochemical; settings: at 25 mg/Kg dosage, about 5.53 mM in 200 µL vehicle; preliminary unpublished data

| SMILES | in vivo toxicity / mortality in mice (mice; Balb/C, 24 h) | in vivo toxicity / mortality in mice (mice) | half-life [1] [min] | Clearance Category [1] | soluble in the formulation vehicle [2] [%] |
| --- | --- | --- | --- | --- | --- |
| C/C1=C\[C@H](C)C(=O)C[C@@H](O)/C(C)=C/[C@H](C)C[C@@H](C)CC[C@@H]([C@@H](C)C(=O)O)OC(=O)[C@@H](C)C1 [Strasseriolide C, strasseriolide C] | survived until 24 h post-i.v. injection | non-toxic | 15.9 ± 1.15 | Medium | – |
| C/C1=C\[C@H](C)[C@@H](O)C[C@@H](O)/C(C)=C/[C@H](C)C[C@@H](C)CC[C@@H]([C@@H](C)C(=O)O)OC(=O)[C@@H](C)C1 [Strasseriolide D, strasseriolide D] | survived until 24 h post-i.v. injection | non-toxic | > 60 | Low | 35 |
